Test results from patent US9096825B2, “7 α-hydroxysteroid dehydrogenase knockout mutants and use therefor” (Pharmazell GmbH, priority 2010, dated 2015).

How the values were obtained:
[1] = biological target: T1, 7β-HSDH obtainable from Collinsella aerofaciens DSM 3979 (Collinsella aerofaciens, UniProt A4ECA9); assay: Kinetic parameters of 7β-HSDH for substrates/cofactors
T1 sequence (A4ECA9 1-263): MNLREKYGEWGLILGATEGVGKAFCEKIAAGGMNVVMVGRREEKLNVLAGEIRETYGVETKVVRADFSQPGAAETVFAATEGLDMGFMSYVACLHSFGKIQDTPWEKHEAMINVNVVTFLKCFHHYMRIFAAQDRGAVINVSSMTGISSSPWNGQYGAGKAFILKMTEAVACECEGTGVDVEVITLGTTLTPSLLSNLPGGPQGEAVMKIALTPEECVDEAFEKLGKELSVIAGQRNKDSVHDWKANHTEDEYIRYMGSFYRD

[2] = test system: E. coli BL21(DE3) Δ7α-HSDH; assay: Incubation of cholic acid with knockout strain culture, HPLC detection of the oxidation product; assay type: cell-based; details: 20 mM cholic acid added to 5 ml of culture
E. coli BL21(DE3) = assay: Incubation of cholic acid with E. coli culture, HPLC detection of the oxidation product; assay type: cell-based; details: 20 mM cholic acid added to 5 ml of culture
[3] = substrate: C[C@H](CCC(=O)O)[C@H]1CC[C@H]2[C@@H]3[C@@H](O)C[C@@H]4C[C@H](O)CC[C@]4(C)[C@H]3CC[C@]12C; assay: purified protein, by the assay type; details: other: substrate/cofactor of 7β-HSDH
[4] = substrate: C[C@H](CCC(=O)O)[C@H]1CC[C@H]2[C@@H]3C(=O)C[C@@H]4CC(=O)CC[C@]4(C)[C@H]3CC(=O)[C@]12C; assay: purified protein, by the assay type; details: other: substrate/cofactor of 7β-HSDH

With `C[C@H](CCC(=O)O)[C@H]1CC[C@H]2[C@@H]3C(=O)C[C@@H]4C[C@H](O)CC[C@]4(C)[C@H]3CC[C@]12C` [7-keto-LCA, 7-Ketolithocholic acid] the kcat [1] was 950.77 1 μmol/(μmol × min) and the Vmax ([1]; 1 U = 1 μmol/min) was 30.77 U/mg protein.

With `C[C@H](CCC(=O)O)[C@H]1CC[C@H]2[C@@H]3[C@H](O)C[C@@H]4C[C@H](O)CC[C@]4(C)[C@H]3C[C@H](O)[C@]12C` [cholic acid, Cholic acid] the “oxidation product 7-keto-3,12-dihydroxycholanic acid detected by HPLC” value [2] was “No oxidation product” and the “7α-HSDH activity against cholic acid (oxidation to 7-keto-3,12-dihydroxycholanic acid)” value (E. coli BL21(DE3)) was “clearly showed 7α-HSDH activity”.

B1: 7β-HSDH obtainable from Collinsella aerofaciens DSM 3979 (Collinsella aerofaciens ATCC 25986) (protein)
chain: MNLREKYGEWGLILGATEGVGKAFCEKIAAGGMNVVMVGRREEKLNVLAGEIRETYGVETKVVRADFSQPGAAETVFAATEGLDMGFMSYVACLHSFGKIQDTPWEKHEAMINVNVVTFLKCFHHYMRIFAAQDRGAVINVSSMTGISSSPWNGQYGAGKAFILKMTEAVACECEGTGVDVEVITLGTTLTPSLLSNLPGGPQGEAVMKIALTPEECVDEAFEKLGKELSVIAGQRNKDSVHDWKANHTEDEYIRYMGSFYRD
In the case of B1, the Km [3] is reported as 6.23 µM, the Vmax [3] is reported as 38.2 µmol/min/mg and the Km [4] is reported as 9.23 µM. It also gave a Vmax [4] of 28.3 µmol/min/mg.
